Results as given in patent US12714698B2, “Compositions and methods for treating or preventing dermal disorders” (Drexel University, priority 2015, dated 2026).
Like-named read-outs stand apart in the source and are kept apart here.

What was measured:
[1] = system: ribosomal S6 protein and MDM2; test: Immunoblot of ribosomal S6 protein and MDM2 phosphorylation (mTORC1/p70S6K signaling); type: cell-based, human
Experimental: (§1) Cell culture experiments utilizing NRTIs were of the following design. Cultures of either human lung or cardiac fibroblasts were cultivated according to standard culture protocols for these cells (Cristofalo, et al., Journal of Tissue Culture Methods 1980, 6:117-121). Parallel sets of cultures were maintained in normal growth media or in normal growth media with the addition of 1 nM rapamycin. Cultures were maintained with 1 nM rapamycin (Enzo Biologicals) for two weeks before exposure to NRTIs. Cell cultures were exposed to NRTIs at indicated concentrations in individual experiments (generally 10-20 μg/ml) for 7 days, with a change of media and fresh NRTIs at day 4. Mitochondrial measurements, bioanalyzer measurements, immunoblotting for protein expression and phosphorylation status, and assays for senescence were performed at the end of this 7-day period.
(§2) Cell culture reagents were from Cellgro, unless indicated. WI-38 fetal-lung primary human fibroblasts or human cardiac fibroblasts were grown in MEM supplemented with 10% fetal bovine serum, 1% L-glutamine, MEM vitamins, and MEM non-essential amino acids. Cells were maintained in a 37° C. in 5% CO2 incubator. For treatment studies, cells were treated with 1 nM rapamycin (Enzo Biologicals) for two weeks before treatment with NRTIs. Cells were maintained by trypsinization and reseeding at a cell density of 1×10^4/cm^2 every 7 to 10 days. Emtricitabine (FTC) and tenofovir disoproxil fumarate (TDF) were kindly provided by the NIH AIDS Research & Reference Reagent program. During the 7-day exposure to the NRTIs, the pharmacologic inhibitors PD98059 (10 μM, Santa Cruz Biotechnologies), BI-D1870, GW5074, and SB203580 (10 μM, Enzo Biologicals) were added to the culture medium either during the final 48 hours or for the final 2 hours depending upon the experiment. During the 7-day exposure to NRTIs, Trolox (500 μM) and N-acetylcysteine (100 μM, Acros Organics) were added every other day. Mito-Q (20 nM) and TPP (20 nM) were kindly provided by Dr. Brett Kaufmann at the University of Pennsylvania School of Veterinary Medicine. Vector and mt-catalase adenoviruses (MOI's 25, 50, and 75) were purchased from Gene Transfer Vector Core from the University of Iowa.
Cell protein extracts were prepared by extracting with radioimmunoprecipitation assay (RIPA) buffer containing a protease inhibitor cocktail (Sigma-Aldrich) and phosphatase inhibitors, NaF and sodium orthovanadate. Protein concentration was quantified using a bicinchoninic acid (BCA) assay (Pierce Biotechnology). Western blot analysis was performed using 15 to 30 μg of protein extracts that were run on SDS-PAGE and transferred onto nitrocellulose (Biorad) membranes. Blots were incubated with antibodies specific for: beta-actin (Sigma-Aldrich), TFAm, parkin, p16, phospho(S82)HSP27, HSP27 (Santa Cruz Biotechnologies), p53, 21, catalase, MDM2 (EMD Millipore), VDAC, phospho(S235/236)-ribosomal protein S6, ribosomal protein S6, phospho(S166)-MDM2, phospho(5473)-AKT, AKT, beta-tubulin (Cell Signaling), p62 (Enzo Biologicals), IL-6 (NeoBiolab), lamin B1, PINK1, and Mitoprofile Total OXPHOS Cocktail (complex I-NDUFB8 subunit, CII-SDHB subunit, […]2 subunit, and CIV-mitochondrial COX1 subunit) (Abcam) according to manufacturers' instructions. Western blots were visualized using IRDye 680 and 800 LI-COR secondary antibodies on a LI-COR Odyssey using LI-COR Odyssey software version 3.0 (LI-COR Biosciences). For co-immunoprecipitation, cell protein extracts were prepared in HNTG buffer containing a protease inhibitor cocktail and quantified using BCA assay. Protein extracts at the concentration of 0.5 mg were pre-cleared with protein A/G beads (Santa Cruz Biologicals) for 30 minutes. After centrifugation at 2,000 rpm for 5 minutes at 4° C., the supernatant was incubated with the primary antibody at manufacturer's recommended concentration overnight at 4° C. An IgG antibody (Cell Signaling) was used as a non-specific control.

[2] = system: ribosomal S6 protein and MDM2; test: as above; type: cell-based, human; remark: listed apart in the source
[3] = system: human cardiac fibroblasts; test: Immunoblot of senescence markers (p53, p21, p16, lamin B1, IL-6); type: cell-based; details: ROS-reducing intervention during NRTI exposure, no rapamycin
Experimental: as §1, §2
Cell protein extracts were prepared by extracting with radioimmunoprecipitation assay (RIPA) buffer containing a protease inhibitor cocktail (Sigma-Aldrich) and phosphatase inhibitors, NaF and sodium orthovanadate. Protein concentration was quantified using a bicinchoninic acid (BCA) assay (Pierce Biotechnology). […] For co-immunoprecipitation, cell protein extracts were prepared in HNTG buffer containing a protease inhibitor cocktail and quantified using BCA assay. […]

[4] = system: human cardiac fibroblasts; test: Mitochondrial membrane potential, mass, superoxide and total ROS by flow cytometry; type: cell-based; details: control cultures (no rapamycin) treated with scavenger during NRTI exposure
Experimental: as §1, §2
Mitochondrial membrane potential was detected by incubating cells with 25 nM TMRE (Molecular Probes). Mitochondrial mass was evaluated by incubating the cells with 100 nM Mitotracker Green FM (Molecular Probes). Mitochondrial superoxide anion levels were detected by incubating the cells with 5 μM MitoSox Red (Molecular Probes). Total cellular levels of ROS were detected by incubating the cells with 10 μM 2′,7′-dichlorofluoroscein diacetate (DCF-DA; Sigma-Aldrich) in 1% fetal bovine serumsupplemented MEM and washing twice with Krebs Ringer phosphate glucose buffer (145 mM NaCl, 5.7 mM NaH2PO4, 4.86 mM KCL, 0.54 mM CaCl2), 1.22 mM MgSO4, and 5.5 mM glucose) following the incubation period. For the aforementioned assessments, incubation was performed at 37° C. in 5% CO2 for 30 minutes and cells were harvested in 2.5% trypsin-EDTA with serum-containing medium. Cells were immediately analyzed with a Guava EasyCyte Mini employing the Guava Express Plus program (Guava Technologies).

[5] = system: human cardiac fibroblasts; test: Senescence-associated beta-galactosidase detection; type: cell-based; details: ROS-reducing intervention during NRTI exposure, no rapamycin
Experimental: as §1
Assessment of SA-β-gal activity was performed by plating cells following respective treatments at low density (0.5×10^4/cm^2) to prevent false positive staining known to occur in high density cultures. […] Following incubation, cells were washed three times with PBS and at least 500 cells were counted for each sample in triplicates. Positive cells (blue cells) were expressed as a percentage of total cells.

[6] = system: human cardiac fibroblasts; test: Mitochondrial respiration, Seahorse XF24 Bioanalyzer; type: cell-based; details: mito-Q during NRTI exposure
Experimental: Cell culture experiments utilizing NRTIs were of the following design. Cultures of either human lung or cardiac fibroblasts were cultivated according to standard culture protocols for these cells (Cristofalo, et al., Journal of Tissue Culture Methods 1980, 6:117-121). Parallel sets of cultures were maintained in normal growth media or in normal growth media with the addition of 1 nM rapamycin. Cultures were maintained with 1 nM rapamycin (Enzo Biologicals) for two weeks before exposure to NRTIs. […] Mitochondrial measurements, bioanalyzer measurements, immunoblotting for protein expression and phosphorylation status, and assays for senescence were performed at the end of this 7-day period. Mitochondrial function was measured using the XF cell mito stress test kit on a Seahorse XF24 Bioanalyzer (Seahorse Bioscience). Cells were seeded at a density of 15,000 cells per well in an XF24 microplate. Following acquisition, results were normalized based upon 10^6 cells counted using a Guava EasyCyte Mini (Millipore), where applicable. […] Respiration rates and proton leak were assessed as outlined in published methods (Hill, et al., Biological chemistry 2012, 393:1485-1512). Mitochondrial respiration was calculated based upon oxygen consumption rate measurements in triplicates from cells seeded in at least quadruplicates. Basal respiration represents the initial oxygen consumption rate measurements and maximal respiration represents the oxygen consumption rate measurements following FCCP addition. ATP-linked respiration is represented as the oligomycin-sensitive oxygen change to basal oxygen consumption rate. Proton leak represents the oligmycin insensitive oxygen consumption rate. […] All data was normalized to cell number by counting cells in each well at the completion of the mitochondrial assessments.

human fibroblasts = test: Ethidium bromide mitochondrial stress in human fibroblasts; details: exposure to ethidium bromide
Text: Human fibroblasts were exposed to ethidium bromide for 7 days and cell viability measured at that time.

[7] = agent added to NRTI-exposed cardiac fibroblasts
[8] = replicative senescent cardiac fibroblasts
[9] = serum-free 48 hours, exposure 2 hours, 1 to 400 μM

In the case of `C[S+]([O-])c1ccc(-c2nc(-c3ccncc3)c(-c3ccc(F)cc3)[nH]2)cc1` (stereo not drawn) [SB-203580], the “MDM2 phosphorylation in cells exposed to NRTIs” value (“MDM2 phosphorylation … to NRTIs” below) [1] is reported as “no effect” and the “ribosomal S6 phosphorylation in cells exposed to NRTIs” value [1] is reported as “no effect”.

`COc1cc(C(C)=O)ccc1O` [apocyanin] was tested, and the “ribosomal S6 phosphorylation in cells exposed to NRTIs” value [1, 7] was “did not prevent the increase”.

`CC(C)CCN1c2nc(Nc3cc(F)c(O)c(F)c3)ncc2N(C)C(=O)C1C` (stereo not drawn) [BI-D1870] was tested, and the “ribosomal S6 phosphorylation in cells exposed to NRTIs” value [1, 7] was “greatest impact”, the “phosphorylated MDM2 in senescent fibroblasts” value [2, 8] was “reduced” and the “ribosomal S6 phosphorylation in senescent fibroblasts” value [2, 8] was “reduced”.

For `N#CC(=C(/N)Sc1ccccc1N)/C(C#N)=C(\N)Sc1ccccc1N` [U0126], the “ribosomal S6 phosphorylation in cells exposed to NRTIs” value [2] was “some decrease”.

For `CCc1cncnc1N1CCN(Cc2nc3ccc(C(F)(F)F)cc3[nH]2)CC1` [PF-4708671], the “MDM2 phosphorylation … to NRTIs” value [1, 7] was “inhibited” and the “ribosomal S6 phosphorylation in cells exposed to NRTIs” value [1, 7] was “inhibited”.

In the case of `O=C1Nc2ccc(I)cc2/C1=C/c1cc(Br)c(O)c(Br)c1` [GW5047], the “ribosomal S6 phosphorylation in cells exposed to NRTIs” value [1, 7] is reported as “some decrease”.

`COC1=C(OC)C(=O)C(CCCCCCCCCC[P+](c2ccccc2)(c2ccccc2)c2ccccc2)=C(C)C1=O` [Mito-Q] was tested, and the “MDM2 phosphorylation … to NRTIs” value [1, 7] was “reduced”, the “ribosomal S6 phosphorylation in cells exposed to NRTIs” value [1, 7] was “reduced” and the “increase in senescence-associated proteins (p53, p21, p16) following NRTI exposure” value [3] was “ameliorated”. The “mitochondrial ROS following exposure to NRTIs” value [4] was “ameliorated”, the “mitochondrial ROS following exposure to NRTIs” value ([4]; listed as mito-Q) was “lower level” and the “percentage of cells positive for SA-β-gal staining” value [5] was “reduced”. For the same compound, the “NRTI-induced increase in basal respiration, ATP-linked respiration and proton leak” value [6] was “partially alleviated” and the maximal respiration [6] was “less affected”.

With `C=C(C)[C@H]1Cc2c(ccc3c2O[C@@H]2COc4cc(OC)c(OC)cc4[C@@H]2C3=O)O1` [rotenone] the “concentration of sharp inhibition of S6 phosphorylation” value ([2]; serum deprived cardiac fibroblasts, 16 hours) was 50 nM and the “S6 phosphorylation at nanomolar concentrations” value ([2]; serum deprived cardiac fibroblasts, 16 hours, 1 to 50 nM) was “increased”.

In the case of `CC[n+]1c(-c2ccccc2)c2cc(N)ccc2c2ccc(N)cc21` [ethidium bromide], the mitochondrial network (human fibroblasts) is reported as “destroyed”.

For `OO` [hydrogen peroxide], the “ribosomal S6 and MDM2 phosphorylation at the lower concentrations” value ([2]; serum-free 48 hours, exposure 2 hours) was “increased”, the “concentration of maximal activation of ribosomal S6 and MDM2 phosphorylation” value [2, 9] was 50 µM and the “concentrations at which ribosomal S6 and MDM2 phosphorylation are inhibited” value [2, 9] was “above 100 μM”.
